In US7446102B2, “Antibacterial amide macrocycles IV” (priority 2004, dated 2008) one finds MIC data, which are given here for 1 compound.

SMILES strings stand for the structures. Counter-ions that a name gives are not always drawn.

The assay relates to E. faecium L4001. Description: Determination of the minimum inhibitory concentration (MIC), E. faecium L4001. The assay is classed as cell-based. The settings on record: Enterococcus faecium, L4001, read-out: MIC E. faecium L4001. The procedure: Determination of the Minimum Inhibitory Concentration (MIC)
The minimum inhibitory concentration (MIC) is the minimum concentration of an antibiotic with which the growth of a test microbe is inhibited over 18-24 h. The inhibitor concentration can in these cases be determined by standard microbiological methods (see, for example, The National Committee for Clinical Laboratory Standards. Methods for dilution antimicrobial susceptibility tests for bacteria that grow aerobically; approved standard-fifth edition. NCCLS document M7-A5 [ISBN 1-56238-394-9]. NCCLS, 940 West Valley Road, Suite 1400, Wayne, Pa. 19087-1898 USA, 2000). The MIC of the compounds of the invention is determined in the liquid dilution test on the 96-well microtitre plate scale. The bacterial microbes are cultivated in a minimal medium (18.5 mM Na2HPO4, 5.7 mM KH2PO4, 9.3 mM NH4Cl, 2.8 mM MgSO4, 17.1 mM NaCl, 0.033 μg/ml thiamine hydrochloride, 1.2 μg/ml nicotinic acid, 0.003 μg/ml biotin, 1% glucose, 25 μg/ml of each proteinogenic amino acid with the exception of phenylalanine; [H.-P. Kroll; unpublished]) with the addition of 0.4% BH broth (test medium). In the case of Enterococcus facium L4001, heat-inactivated fetal calf serum (FCS; GibcoBRL, Germany) is added to the test medium in a final concentration of 10%. Overnight cultures of the test microbes are diluted to an OD578 of 0.001 (to 0.01 in the case of enterococci) in fresh test medium, and incubated 1:1 with dilutions of the test substances (1:2 dilution steps) in test medium (200 μl final volume). The cultures are incubated at 37° C. for 18-24 hours; enterococci in the presence of 5% CO2.
The lowest substance concentration in each case at which no visible bacterial growth occurred any more is defined as the MIC.
Alternative Method for Determining the Minimum Inhibitory Concentration (MIC)
The minimum inhibitory concentration (MIC) is the minimum concentration of an antibiotic with which the growth of a test microbe is inhibited over 18-24 h. The inhibitor concentration can in these cases be determined by standard microbiological methods with modified medium in an agar dilution test (see, for example, The National Committee for Clinical Laboratory Standards. Methods for dilution antimicrobial susceptibility tests for bacteria that grow aerobically; approved standard-fifth edition. NCCLS document M7-A5 [ISBN 1-56238-394-9]. NCCLS, 940 West Valley Road, Suite 1400, Wayne, Pa. 19087-1898 USA, 2000). The bacterial microbes are cultivated on 1.5% agar plates which contain 20% defibrinated horse blood. The test microbes, which are incubated overnight on Columbia blood agar plates (Becton-Dickinson), are diluted in PBS, adjusted to a microbe count of about […] and placed dropwise (1-3 μl) on test plates. The test substances comprise different dilutions of the test substances (1:2 dilution steps). The cultures are incubated at 37° C. in the presence of 5% CO2 for 18-24 hours.
The lowest substance concentration in each case at which no visible bacterial growth occurred any more is defined as the MIC and is reported in μg/ml.

On to `NC[C@H](O)C[C@@H]1NC(=O)[C@@H](N)Cc2cc(ccc2O)-c2ccc(O)c(c2)C[C@@H](C(=O)O)NC1=O` [Example 20A, 14(S)-Amino-11(S)-(3-amino-2(R)-hydroxypropyl)-5,17-dihydroxy-10,13-dioxo-9,12-diazatricyclo[14.3.1.1^2,6]henicosa-1(19),2,4,6(21),16(20),17-hexaene-8(S)-carboxylic acid dihydrochloride, reference compound], for which the MIC – broadly, the least concentration at which growth counts as inhibited – worked out at 0.5 µg/mL.
